In patent US20160223522A1, “ASSAY FOR DETERMINING RELATIVE REDOX CHANGES IN LIVING CELLS AND ASSOCIATED DEVICES, SYSTEMS, AND METHODS” (University of Utah Research Foundation, priority 2013, published 2016):
Read-outs that look alike come from different tables or passages of the source. Ends that are not written are not given here.

What was measured:
BJ fibroblasts [1] = experiment: Secondary test: protection of cells from hydrogen peroxide oxidative stress, viability by Alamar Blue; format: cell-based, human; details: 4 μM hit for 24 hours; 980 μM hydrogen peroxide for four hours; viability 24 hours following treatment (FIG. 11c)
Protocol: (§1) For comparison with Alamar Blue™ (Invitrogen, Carlsbad, Calif.), cells in a 96-well plate were washed with PBS followed by four hours of incubation with Alamar Blue diluted 1:10 in normal media according to the manufacturer's instructions. Alamar Blue fluorescence was assayed in a plate reader using excitation and emission wavelengths 540 nm and 590 nm, respectively.
(§2) A secondary test was performed to evaluate the ability of each hit to protect cells from oxidative stress. Cells in 96-well plates were incubated with hits dissolved to 4 μM in cell media for 24 hours (three wells per compound). Cells were then washed once with PBS, and treated with hydrogen peroxide dissolved in cell media for four hours. Cells were then washed once with PBS, and cell viability was assayed with Alamar Blue.
(§3) Control cells were not treated with hydrogen peroxide. Every other category, including DMSO, was treated with 240 μM hydrogen peroxide for four hours prior to viability assessment with Alamar Blue. P-value for 10E4 vs. DMSO is 0.04, p-value for 10E4 vs. control is 0.98, and p-value for DMSO vs. control is 0.02. […] Control cells were not treated with hydrogen peroxide. DMSO pre-treated cells and every other category was treated with 980 μM hydrogen peroxide for four hours prior to the addition of Alamar Blue. […]

H9C2 cells = experiment: as above; format: cell-based, rat; details: 4 μM hit for 24 hours; 24 hours after treatment with 600 μM hydrogen peroxide (FIG. 11b)
Protocol: as §1, §2, §3

BJ fibroblasts [2] = experiment: Reductide plate reader assay in cells (FAM signal after treatment with redox-modifying agents); format: cell-based, human; details: for reductide FAM signal, % of control at 50 µM: Homo sapiens, Fibroblast, 50 μM compound for 24 hours, then reductide 1.5 μM for four hours, in comparison with vehicle treated cells, read-out: % change from control (reductide FAM signal)
Protocol: BJ fibroblasts were trypsinized and re-plated in a 96-well plate (5,000 cells/well) in normal growth medium and allowed to attach overnight. Media was replaced with normal media supplemented with the chemical redox-modifying agent indicated in the “Results” section for the indicated duration of treatment. Cells were subsequently washed one time with PBS and media was replaced with normal media supplemented with reductide 1 μM.
BJ fibroblasts in 96-well plates were pretreated with various redox-modifying agents followed by washing, incubation with reductide, and assessment of fluorescence by plate reader. […] However, following twenty-four hours of treatment with H2O2, FAM signal was increased for BJ fibroblasts treated with 200-400 μM H2O2 (FIG. 4D) but decreased with higher doses.
Although glutathione is the most abundant intracellular redox buffering system, the protein thioredoxin also acts as an important redox buffer. In order to test whether uptake and reduction of reductide is affected by glutathione status, thioredoxin status, or both, BJ fibroblasts were treated with the specific inhibitor of thioredoxin reductase, aurothioglucose, the inhibitor of glutathione biosynthesis, 1-buthionine sulfoximine (BSO), or both for 24 hours followed by washing, incubation with reductide for four hours, and plate reader assay. […] Thus, uptake and reduction of reductide depends on both glutathione and thioredoxin systems.
In another test to determine whether uptake and reduction of reductide is affected by glutathione status, BJ fibroblasts were treated with 1-buthionine sulfoximine (BSO), an inhibitor of glutathione biosynthesis, or diamide, a thiol oxidizing agent that decreases the cellular GSH to GSSG ratio. […] The following day, cells were treated with the glutathione biosynthesis inhibitor 1-buthionine sulfoximine (BSO) (FIG. 6a) or the thiol oxidizing agent diamide (FIG. 6b) in normal media also containing reductide 1 μM.
The following day, cells were incubated in normal cell media supplemented with 50 μM of a redox-modifying compound from the redox library distributed from Enzo Life Sciences. Each redox compound was used to treat three wells for 24 hours. Afterward, cells were washed with PBS followed by incubation in reductide 1 μM dissolved in normal media for four hours. FAM signal from reduction of reductide's disulfide bond was assayed in a plate reader. Most compounds in the library are classified as antioxidants. […] It should be noted that the screening conditions (50 μM concentration, 24 hour drug incubation) were not optimized for each drug individually. That many antioxidants can act as pro-oxidants if their concentration is sufficiently high is well known. […] When retested at new concentrations, different results were obtained (FIG. 10a-c), showing an increase in signal expected for reduction.
Cells were subsequently washed with PBS and incubated with reductide 1.5 μM dissolved in cell media for four hours. FAM signal was assayed in a plate reader. The redox modifying compounds were obtained as an 84 compound library from Enzo Life Sciences. Percentage change in reductide signal in comparison with vehicle treated cells are shown for a subset of the redox modifying compounds.

IMR90 fibroblasts [3] = experiment: Flow cytometry of cells incubated with reductide (TAMRA, FAM, DAPI, side-scatter); format: cell-based, human
Protocol: IMR90 fibroblasts were seeded onto six 10 cm dishes at a density of 1.8×10^6 cells and allowed to attach overnight. Three dishes were treated with H2O2 600 μM and another three with NAC 4 mM, each in normal media, for one hour. Cells were washed with PBS followed by incubation with reductide 1 μM in normal media for 3, 15, or 30 minutes. Cells were then washed again with PBS followed by trypsinization and collection in normal media without phenol red. Cell concentration was 10^6 per ml. DAPI was added at 1:500 dilution and cells were analyzed by flow cytometry for TAMRA and FAM fluorescence.
IMR90 cells were seeded into 10 cm dishes at a density of 1.8×106 and allowed to attach overnight. The following day, cells were pretreated with NAC 4 mM or H2O2 600 μM for 60 minutes prior to peptide incubation.

IMR90 fibroblasts [4] = tested on: IMR90 fibroblasts
Protocol: For comparison with monochlorobimane, IMR90 fibroblasts were seeded into a 96 well plate at a density of 50,000 cells per well and attached overnight. Cells were incubated for 60 minutes in media containing NAC or H2O2 at the indicated concentrations. Cells were washed twice in 200 μl of PBS. Monochlorobimane was used to assay reduced GSH content in half the wells using the Glutathione Assay Kit available from Sigma (CS 1020, St. Louis, Mo., USA), following the manufacturer's instructions for use in live cells in a plate reader. At the same time, reductide was dissolved in the same assay buffer used for monochlorobimane treatment and added to half of the wells at a concentration of 1 μM. Fluorimetric readings were performed in a Synergy HT plate reader using excitation and emission wavelengths of 485 nm/528 nm for reductide and 390 nm/478 nm for monochlorobimane. Each cell condition was triplicated, and each experiment was repeated two times.
Reductide (FIG. 8a) is compared with monochlorobimane (FIG. 8b), which is non-fluorescent unless conjugated to low molecular weight thiols, in IMR90 fibroblasts following pretreatment with NAC or H2O2. Cells were seeded into a 96-well plate at a density of 50,000 cells per well and allowed to attach overnight. […]

[5] = within 30 minutes of incubation; cited from earlier work
[6] = treated for 24 hours, washing, reductide for four hours (FIG. 5)
[7] = treated in normal media also containing reductide 1 μM (FIGS. 6a-b)
[8] = pretreatment at varied concentration, washing, incubation with reductide (FIG. 4A, 4B)
[9] = 50 μM for 24 hours, then reductide 1 μM for four hours
[10] = retested at lower concentrations (FIG. 10a-c)

## C=C(C)C(=O)C(=CC(=O)O)OC [3E7, penicillic acid]
BJ fibroblasts [1]
  viability vs. control (not treated with hydrogen peroxide): significantly higher than control

## CN(C)C(=S)SSC(=S)N(C)C [9B11, thiram]
H9C2 cells
  viability signal vs. DMSO: significantly higher than DMSO

## CC(=O)O[C@@H]1C[C@@]2(C)[C@H](c3ccoc3)C[C@H]3O[C@]32[C@]2(C)C(=O)C(O)=C3C(C)(C)C(=O)C=C[C@]3(C)[C@@H]12 [20B8, anthothecol]
H9C2 cells
  viability signal vs. DMSO: significantly higher than DMSO

## CCCCS(=N)(=O)CCC(N)C(=O)O (centres unmarked) [BSO, 1-buthionine sulfoximine]
BJ fibroblasts [2]; [6]
  reductide FAM signal: significant increase in signal
BJ fibroblasts [2]; [7]
  reductide FAM signal: significant decrease in reductide FAM signal

## O=[N+]([O-])c1ccc(Cl)c([N+](=O)[O-])c1 [CDNB, 1-chloro-2,4-dinitrobenzene]
BJ fibroblasts [2]; [8]
  FAM signal after pretreatment: decreased in proportion to the concentration

## O=c1c2ccccc2[se]n1-c1ccccc1 [Ebselen]
BJ fibroblasts [2]
  reductide FAM signal, % of control at 50 µM: 77.2%

## CCOc1ccc2c(c1)C(C)=CC(C)(C)N2 [Ethoxyquin]
BJ fibroblasts [2]
  reductide FAM signal, % of control at 50 µM: 155%

## Cc1cc(Cc2cc(C)cc(C(C)(C)C)c2O)c(O)c(C(C)(C)C)c1 [GERI-BP002A]
BJ fibroblasts [2]; [9]
  FAM signal relative to vehicle treated cells: significant decrease in FAM signal
BJ fibroblasts [2]; [10]
  FAM signal relative to vehicle treated cells: increase in FAM signal consistent with reduction

## OO [H2O2, hydrogen peroxide]
BJ fibroblasts [2]; four hours of incubation with H2O2 (FIG. 4C)
  FAM signal after pretreatment: decreased in proportion to H2O2 concentration
BJ fibroblasts [2]; twenty-four hours of treatment, 200-400 μM H2O2 (FIG. 4D)
  FAM signal after pretreatment: increased
BJ fibroblasts [2]; twenty-four hours of treatment, higher doses than 200-400 μM (FIG. 4D)
  FAM signal after pretreatment: decreased
IMR90 fibroblasts [3]; reductide 1 μM for 3, 15 or 30 minutes vs. controls, H2O2 600 μM pretreatment for 60 minutes
  nonviable cells by side-scatter or DAPI signal: No increase in nonviable cells
IMR90 fibroblasts [4]; pretreatment 600 μM for 60 minutes (FIG. 8a)
  FAM signal following incubation with reductide: significant decrease in FAM signal
IMR90 fibroblasts [4]; pretreatment with low doses for 60 minutes (FIG. 8a)
  FAM signal following incubation with reductide: mild increases in FAM signal

## COC1=C(OC)C(=O)C(CCCCCCCCCCO)=C(C)C1=O [Idebenone]
BJ fibroblasts [2]
  reductide FAM signal, % of control at 50 µM: 121%

## CCN1C(=O)C=CC1=O [N-Ethylmaleimide]
BJ fibroblasts [2]
  reductide FAM signal, % of control at 50 µM: -71.7%

## CC(=O)N[C@@H](CS)C(=O)O [NAC, N-acetylcysteine]
BJ fibroblasts [2]; [8]
  FAM signal after pretreatment: increased in proportion to the concentration
IMR90 fibroblasts [3]; pretreatment NAC 4 mM for 60 minutes, then reductide 1 μM
  TAMRA signal (reductide uptake): strongest

## CCCCCCCCCCCCCCCC(=O)OC/C=C(C)/C=C/C=C(C)/C=C/C1=C(C)CCCC1(C)C [Retinyl palmitate]
BJ fibroblasts [2]
  reductide FAM signal, % of control at 50 µM: 124%

## CC1=C(C)C(=O)C(C(CCCCCC(=O)O)c2ccccc2)=C(C)C1=O (centres unmarked) [Seratrodast]
BJ fibroblasts [2]
  reductide FAM signal, % of control at 50 µM: 135%

## OC[C@H]1O[C@H]([S-])[C@H](O)[C@@H](O)[C@@H]1O.[Au+] [aurothioglucose]
BJ fibroblasts [2]; [6]
  reductide FAM signal: small increase in reductide FAM signal that was not statistically significant

## COc1ccccc1OCCNCC(O)COc1cccc2[nH]c3ccccc3c12 (centres unmarked) [carvedilol]
BJ fibroblasts [2]; [9]
  FAM signal relative to vehicle treated cells: significant decrease in FAM signal
BJ fibroblasts [2]; [10]
  FAM signal relative to vehicle treated cells: increase in FAM signal consistent with reduction

## CN(C)C(=O)/N=N/C(=O)N(C)C [diamide]
BJ fibroblasts [2]; [7]
  reductide FAM signal: significant decrease in reductide FAM signal

## C[Se]CC[C@H](N)C(=O)O [selenomethionine]
BJ fibroblasts [2]; all concentrations tested (FIG. 10a-c)
  FAM signal relative to vehicle treated cells: significant increase in FAM signal consistent with reduction

## CC1=C(/C=C/C(C)=C/C=C/C(C)=C/C=C/C=C(C)/C=C/C=C(C)/C=C/C2=C(C)CCCC2(C)C)C(C)(C)CCC1 [β-carotene]
BJ fibroblasts [2]
  reductide FAM signal, % of control at 50 µM: 111%

## KLALKLALKALKAALKLA-NH2 [MAP]
[5]
  internalized fraction: 60%
